Assay results published in patent US7572606B1 (Nereus Pharmaceuticals, Inc., priority 2005, dated 2009).
Several values for one entry are separate records, joined by “and”; a condition that tells them apart may be missing. Equal entries are not always repeated. Where two headings read alike, the source gives them in different places. Peptide text beside a SMILES is read from it. * marks the point of attachment. Cbz = O=C(OCc1ccccc1)*

Tests used:
Stability in solution = assay type: physicochemical; details: converted to compound VI-1B, mixture 7:3
Method: The reaction mixture was stirred at room temperature for about 3 hours. The solvent was evaporated from the reaction mixture to yield the compound of Formula II-48, which was purified by reversed phase HPLC using Ace 5u C18 column (150 mm×22 mm ID) with a solvent gradient of 10% to 70% H2O/Acetonitrile over 15 min, 70 to 100% Acetonitrile over 5 min, holding at 100% Acetonitrile for 4 min, at a flow rate of 14.5 ml/min. Diode array detector was used to monitor the purification process. Compound II-48 (10 mg) eluted as a pure compound at 8.255 min. […] Compound VI-1B: UV (Acetonitrile/H2O) λmax 235 (sh) nm; ESMS, m/z 585.2 (M+H)^+.

[1] = system: LeTx-induced cytotoxicity of RAW264.7 cells; details: cited from earlier work
B16-F10 = assay: Cell growth inhibition, resazurin, 48 h; assay type: cell-based, mouse; details: Mus musculus, B16-F10, 48 h, B16-F10, 48 h drug exposure
Method: (§1) RPMI 8226 (CCL-155), HT-29 (HTB-38), and B16-F10 (CRL-6475) cells were purchased from ATCC. RPMI 8226 cells were maintained in RPMI 1640 media supplemented with 10% (v/v) FBS, 2 mM L-glutamine, 1 mM sodium pyruvate and Penicillin/Streptomycin at 100 IU/ml and 100 μg/ml, respectively. HT-29 cells were maintained in McCoys 5A supplemented with 10% (v/v) FBS, 2 mM L-glutamine, 1 mM sodium pyruvate, 1% (v/v) non-essential amino acids, 10 mM HEPES and Penicillin/Streptomycin at 100 IU/ml and 100 μg/ml, respectively. B16-F10 cells were maintained in DMEM supplemented with 10% (v/v) FBS, 2 mM L-glutamine, 10 mM HEPES and Penicillin/Streptomycin at 100 IU/ml and 100 μg/ml, respectively.
(§2) RPMI 8226 cells were seeded at 2×10^4 cells/well in 90 μl RPMI media containing 10% (v/v) FBS or 1% (v/v) FBS into 96 well black-walled, clear-bottom tissue culture plates. […] Formulae II-16, II-17 and Formula II-18 were serially diluted in media containing 1% or 10% FBS and added in triplicate to the test wells. […] The final concentration of Formula II-18 ranged from 2 μM to 630 pM.

NCI-H292 = assay: Cell growth inhibition, resazurin, 48 h; assay type: cell-based, human; details: Homo sapiens, NCI-H292, 48 h, NCI-H292, 48 h drug exposure
[2] = system: NF-κB-mediated luciferase activity in HEK293 NF-κB/Luc cells; assay: NF-κB-mediated luciferase reporter gene assay; assay type: cell-based, human; details: for EC50: 6 h TNF-α stimulation; for luciferase activity upon TNF-α stimulation: pretreatment of NF-κB/Luc 293 cells
Method: The HEK293 NF-κB/luciferase reporter cell line is a derivative of the human embryonic kidney cell line (ATCC; CRL-1573) and carries a luciferase reporter gene under the regulation of 5×NF-κB binding sites. […] When performing the luciferase assay, the DMEM basal medium was replaced with phenol-red free DMEM basal medium and the G418 was omitted.
For NF-κB-mediated luciferase assays, HEK293 NF-κB/luciferase cells were seeded at 1.5×10^4 cells/well in 90 μl phenol-red free DMEM complete medium into Corning 3917 white opaque-bottom tissue culture plates. For Formulae II-2, II-4, II-5A and II-18, a 400 μM starting dilution was made in 100% DMSO and this dilution was used to generate an 8-point half log dilution series. […] For formula II-20, a 2.5 mM or 8 mM starting dilution was made in 100% DMSO and the final test concentrations ranged from 6.3 μM to 2.0 nM or 20 μM to 6.3 nM respectively. The plates were returned to the incubator for 1 hour. After 1 hr pretreatment, 10 μl of a 50 ng/ml TNF-α solution, prepared in the phenol-red free DMEM medium was added, and the plates were incubated for an additional 6 hours.
At the end of the TNF-α stimulation, 100 μl of Steady Lite HTS luciferase reagent (Packard Bioscience) was added to each well and the plates were left undisturbed for 10 min at room temperature before measuring the luciferase activity. The relative luciferase units (RLU) were measured by using a Fusion microplate fluorometer (Packard Bioscience).
NF-κB inducible luciferase activity was measured at 6 hours.

HT-29 = assay: Cell growth inhibition, resazurin, 48 h; assay type: cell-based, human; details: Homo sapiens, HT-29, 48 h, HT-29, 48 h drug exposure
Method: as §1, §2

RPMI 8226 = assay: Cell growth inhibition, resazurin, 48 h
Method: as §1, §2

[3] = molecular target: caspase-like (PGPH) activity of rabbit muscle 20S proteasome (Oryctolagus cuniculus, UniProt A0A5F9DQW2); assay: In vitro inhibition of 20S proteasome, Z-LLE-AMC; details: read-out: EC50 Caspase-like (PGPH), purified rabbit 20S proteasome, Z-LLE-AMC
PC-3 = assay: Cell growth inhibition, resazurin, 48 h; details: Homo sapiens, PC-3, 48 h, PC-3, 48 h drug exposure
[4] = molecular target: T1, chymotrypsin-like activity of rabbit muscle 20S proteasome (Oryctolagus cuniculus, UniProt G1T4Q9); assay: In vitro inhibition of 20S proteasome, suc-LLVY-AMC
T1 sequence (G1T4Q9 1-263): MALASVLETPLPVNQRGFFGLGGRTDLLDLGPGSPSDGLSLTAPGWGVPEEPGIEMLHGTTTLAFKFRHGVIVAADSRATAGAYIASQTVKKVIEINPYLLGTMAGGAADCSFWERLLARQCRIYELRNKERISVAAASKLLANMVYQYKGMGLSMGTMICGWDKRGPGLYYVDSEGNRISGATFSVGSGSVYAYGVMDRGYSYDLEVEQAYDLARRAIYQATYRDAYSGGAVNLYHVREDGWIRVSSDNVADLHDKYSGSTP

MDA-MB-231 = assay: Cell growth inhibition, resazurin, 48 h; assay type: cell-based, human; details: Homo sapiens, MDA-MB-231, 48 h, MDA-MB-231, 48 h drug exposure
[5] = molecular target: T2, trypsin-like activity of rabbit muscle 20S proteasome (Oryctolagus cuniculus, UniProt G1SWK8); assay: In vitro inhibition of 20S proteasome, Boc-LRR-AMC; assay type: biochemical; details: for inhibition of the trypsin-like activity of the 20S proteasome: under the conditions tested
T2 construct: EC50 Trypsin-like; other: purified rabbit 20S proteasome, Boc-LRR-AMC; other: under the conditions tested
T2 sequence (G1SWK8 1-271): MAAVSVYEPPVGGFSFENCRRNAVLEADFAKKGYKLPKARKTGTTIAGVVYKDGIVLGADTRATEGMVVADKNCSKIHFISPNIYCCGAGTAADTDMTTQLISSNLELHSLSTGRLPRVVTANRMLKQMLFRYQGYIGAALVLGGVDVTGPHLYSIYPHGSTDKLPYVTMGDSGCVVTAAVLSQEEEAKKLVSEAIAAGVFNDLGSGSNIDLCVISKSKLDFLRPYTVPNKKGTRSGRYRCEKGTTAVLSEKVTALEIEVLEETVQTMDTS

OVCAR-3 = assay: Cell growth inhibition, resazurin, 48 h; assay type: cell-based, human; details: OVCAR-3, 48 h drug exposure
[6] = system: proteasome in packed whole blood lysate; assay: Dose response on PWBL lysates in vitro; assay type: biochemical, mouse; details: lysates of vehicle and 0.1 mg/kg Salinosporamide A treated animals
Source text: Palayoor et al., Oncogene 18:7389-94 (1999).

U266 = assay: Cell growth inhibition, resazurin, 48 h; assay type: cell-based, human; details: Homo sapiens, U-266, 48 h, U266, 48 h drug exposure; read-out: EC50
MES-SA = assay: Cell growth inhibition, resazurin, 48 h; details: 48 h drug exposure
Method: (§3) Concentrations ranging from 6.32 μM to 2 nM were tested for II-2 and II-4.

HL-60/MX2 = assay: Cell growth inhibition, resazurin, 48 h; details: HL-60/MX2, 48 h drug exposure
Method: (§4) The DNA binding agent Mitoxantrone was included as a control, as HL-60/MX2 cells are reported to be resistant to this chemotherapeutic agent (Harker W. G. et al. 1989).
as §3

HL-60 = assay: Cell growth inhibition, resazurin, 48 h; details: HL-60, 48 h drug exposure
Method: as §4, §3

Sequence of caspase-like (PGPH) activity of rabbit muscle 20S proteasome (A0A5F9DQW2 1-212): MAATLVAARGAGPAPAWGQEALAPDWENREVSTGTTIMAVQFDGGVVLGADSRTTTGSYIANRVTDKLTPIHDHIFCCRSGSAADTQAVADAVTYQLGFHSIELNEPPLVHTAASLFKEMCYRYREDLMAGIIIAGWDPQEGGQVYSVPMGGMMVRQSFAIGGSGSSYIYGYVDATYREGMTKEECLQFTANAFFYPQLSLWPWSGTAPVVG

For C[C@]1(O)[C@@H](CCCl)C(=O)N[C@]1(C(=O)SCC(NC(=O)CCC(N)C(=O)O)C(=O)NCC(=O)O)[C@@H](O)[C@@H]1C=CCCC1 (some centres unmarked) [Formula II-48], the stability in solution (Stability in solution) was “unstable in solution”.
In the case of CC(=O)N[C@@H](CSC(=O)[C@]1([C@@H](O)C(C)C)NC(=O)[C@H](C)[C@@H]1O)C(=O)O [Lactacystin], the EC50 [1] is listed as 3000 nM.
In the case of CC(C)C[C@@H](C=O)NC(=O)[C@H](CC(C)C)NC(=O)[C@H](CC(C)C)NC(=O)OCc1ccccc1 [MG132] (Cbz-Leu-Leu-Leu-aldehyde), the EC50 [1] is given as 3000 nM.
C[C@@]12OC(=O)[C@]1([C@@H](O)[C@@H]1C=CCCC1)NC(=O)[C@@H]2CCI [Formula II-19] showed an EC50 (B16-F10) of 13 ± 1.9 nM, an EC50 (NCI-H292) of 27 ± 3.8 nM and an EC50 ([2]; 1 h pretreatment) of 10 nM. The EC50 ([2]; 1 h pretreatment, listed as II-19) was 10 nM, the EC50 ([2]; Homo sapiens, HEK293, 1 h pretreatment) was 7 nM and the “luciferase activity upon TNF-α stimulation” value [2] was “dose-dependent decrease of luciferase activity”. The EC50 (HT-29) was 11 ± 1.6 nM, the EC50 (RPMI 8226; RPMI 8226, 48 h drug exposure) was 6 nM and 7 nM and the EC50 [3] was 739 nM. The EC50 (PC-3) was 29 ± 4 nM, the EC50 [4] was 2 to 11 nM and the EC50 (MDA-MB-231) was 14 ± 3.2 nM. The EC50 ([5]; purified rabbit 20S proteasome, Boc-LRR-AMC) was 15 nM, the “inhibition of the trypsin-like activity of the 20S proteasome” value [5] was “able to inhibit the trypsin-like activity” and the EC50 (OVCAR-3; Homo sapiens, OVCAR-3, 48 h) was 24 nM. The EC50 (OVCAR-3) was 20 nM.
In the case of CC[C@H](C)[C@H](NC(=O)[C@H]([C@@H](C)CC)N(C)C(C)=O)C(=O)N[C@H](C(=O)N[C@@H](CC(C)C)C(=O)[C@@]1(C)CO1)[C@@H](C)O [Epoxomicin], the “hydrolysis of the proteasome substrate in PWBL lysates” value [6] is reported as “dose dependent inhibition in the hydrolysis of the proteasome substrate”.
For C[C@@]12OC(=O)[C@]1([C@@H](O)[C@@H]1C=CCCC1)NC(=O)[C@@H]2CCBr [Formula II-18], the EC50 (U266) was 4.2 nM, the EC50 ([2]; 1 h pretreatment, listed as II-18, read-out: EC50) was 11 nM and the EC50 ([2]; 1 h pretreatment, read-out: EC50) was 11 nM. For the same compound, the EC50 ([2]; Homo sapiens, HEK293, 1 h pretreatment, read-out: EC50) was 9 nM, the “luciferase activity upon TNF-α stimulation” value [2] was “dose-dependent decrease of luciferase activity” and the EC50 (MES-SA) was 17 nM. For the same compound, the EC50 (MES-SA; Homo sapiens, 48 h) was 22 nM, the EC50 (RPMI 8226; Homo sapiens, RPMI-8226, 48 h, RPMI 8226, 48 h drug exposure) was 6.3 nM and the EC50 (RPMI 8226; Homo sapiens, RPMI-8226, read-out: 1% FBS, EC50, Mean, RPMI 8226, media containing 1% FBS, mean of two) was 14 nM. For the same compound, the EC50 (RPMI 8226; Homo sapiens, RPMI-8226, read-out: 10% FBS, EC50, Mean, RPMI 8226, media containing 10% FBS, mean of two) was 20 nM, the “% cytotoxicity” value (RPMI 8226; human, 48 h) was 94, 94% and the EC50 [3] was 286 nM and 213 nM. The EC50 ([3]; listed as II-18) was 286 nM and 213 nM, the EC50 (HL-60/MX2) was 18 nM and the EC50 (HL-60/MX2; Homo sapiens, HL60/MX2, 48 h) was 19 nM. For the same compound, the EC50 (HL-60) was 23 nM, the EC50 (HL-60; Homo sapiens, HL-60, 48 h) was 27 nM and the “inhibition of the trypsin-like activity of the 20S proteasome” value [5] was “able to inhibit the trypsin-like activity”.
